Data taken from publication PMC11443485, “Euphane and Tirucallane Triterpenes with Trypanocidal Activity from Euphorbia desmondii” (Journal of Natural Products, 2024).
Like-named read-outs stand apart in the source and are kept apart here.

Legend:
[1] = test system: T. cruzi epimastigotes (Y strain); experiment: Trypanocidal activity against T. cruzi epimastigotes, Cell Proliferation Kit II (XTT) assay; format: cell-based, Trypanosoma cruzi; conditions: for Selectivity Index: T. cruzi epimastigotes over the host cell (RAW264.7 macrophages); for IC50: epimastigotes, Y strain, 72 h at 28 °C, XTT, read-out: T. cruzi epimastigote WT-Y IC50; for Increase of the proliferation of the epimastigotes: at the lower micromolar concentrations, trypanocidal at higher concentrations; for Effect on T. cruzi epimastigote proliferation (Figure S130): mean ± SD of three independent experiments each in triplicates
Method: Epimastigotes of T. cruzi [Y strain (ATCC 50832)] were maintained in weekly passages in a liver infusion tryptose (LIT) medium supplemented with 10% heat-inactivated fetal bovine serum (hiFBS) at 28 °C, as described previously.[33] The epimastigote cultures in the logarithmic-growth phase (1–5 × 10^7 parasites/mL) were used for the experiments unless stated otherwise. The green fluorescent protein (GFP)-overexpressing epimastigotes were generated by transfection using pTREX-n-eGFP, a gift from Rick Tarleton (Addgene plasmid # 62544; http://n2t.net/addgene:62544;RRID:Addgene_62544), as described previously. The GFP-expressing epimastigotes were cultured in LIT medium supplemented with 10% hiFBS and 500 μg/mL G418.
(§1) To assess the selectivities of the isolated compounds, their trypanocidal activities against the epimastigotes were assessed by the Cell Proliferation Kit II (XTT) assay, as previously described.[11] Briefly, 1.5 × 10^5 epimastigotes were seeded per well in 96-well plates. The compounds were added at a single concentration, 10 μM (for the initial screening experiments) or six concentrations ranging from 10–0.3 μM for 72 h at 28 °C. In all the experiments, benznidazole was used as the positive control. Following the incubation period, the plates were examined under a microscope for sterility and growth of controls. To the plates, 50 μL of XTT and PMS (Phenazine methosulfate, Sigma-Aldrich, MO, USA) solution (XTT and PMS at 0.5 and 0.025 mg/mL, respectively) was added, and the plates were then incubated at 28 °C for 2.5 h. The parasites were fixed by the addition of 50 μL of MeOH for 15 min before the absorbance was measured at 490 nm on a Tecan plate reader. Results were expressed as percentage cell viability relative to vehicle control or IC50 values calculated by GraphPad Prism version 8.0. All assessments were performed in triplicate in at least two independent experiments.

RAW264.7 macrophages = experiment: Cytotoxicity in RAW264.7 macrophages (mammalian host cells); format: cell-based; conditions: host cell cytotoxicity, read-out: RAW 264.7 IC50
Method: [The procedure below names another organism; the source lists this organism under the same test.] To biologically characterize the isolated triterpenoids for their trypanocidal activities, their cytotoxicities in RAW264.7 macrophages (mammalian host cells) and T. cruzi epimastigotes were analyzed.
as §1, with “The compounds were added at a single concentration, 10 μM (for the initial screening experiments) or six concentrations ranging from 10–0.3 μM for 72 h at 28 °C.” left out

[2] = test system: T. cruzi amastigotes in infected RAW264.7 cells; experiment: Amastigote replication in host cells: FACS quantitation of GFP parasites released from infected RAW264.7 cells; format: cell-based, Trypanosoma cruzi; conditions: GFPY parasite release from infected RAW264.7 cells, FACS after 6 days, mean ± SD of three independent experiments
Method: Figure 3 Inhibition activity of 1 against amastigote replication in the host cells. […] (A) Representative brightfield microscopic image of CCL39 fibroblasts infected with Trypanosoma cruzi with amastigotes (arrow). […] (C) Inhibition curves of compound 1 and the positive control, benznidazole, of the GFPY parasite release from the infected RAW264.7 cells were measured by fluorescence-activated cell sorting (FACS) after 6 days.
Fluorescence-activated cell sorting (FACS)-based quantitation of released parasites from infected RAW264.7 cells: The host cells were seeded in 24-well plates at densities of 40,000 and 10,000 cells/mL. The cells were allowed to adhere for 24 h, after which they were infected with trypomastigotes that were harvested by the swim-out procedure described above at a multiplicity of 10. On the next day, the noninternalized trypomastigotes were washed off, and fresh RPMI with 2% fetal bovine serum was added to the wells along with the test substance. In all of the experiments, the screening was performed in triplicate, including tests with DMSO and benznidazole controls. The released parasites were fixed using 4% paraformaldehyde in phosphate-buffered saline for 1 h, after which the samples were analyzed by FACS (BD Biosciences), as described previously.[11]

[3] = Trypanosoma cruzi, RAW264.7, 144 h

Compound | Selectivity Index [1] | IC50 ([1]; Trypanosoma cruzi) [µM] | Increase of the proliferation of the epimastigotes [1] | Effect on T. cruzi epimastigote proliferation (Figure S130) [1] | IC50 (RAW264.7 macrophages; Mus musculus) [µM] | IC50 [2] [µM] | IC50 [2, 3] [µM] | IC50 [1] [µM] | IC50 (RAW264.7 macrophages) [µM] | IC50 ([2]; listed as desmondiin A) [µM]
C[C@@H](C/C=C/C(C)(C)OO)[C@@H]1CC[C@]2(C)C3=C(C(OO)C[C@@]12C)[C@@]1(C)CC[C@H](O)C(C)(C)[C@@H]1CC3=O (stereo partly drawn) [Compound 5, (23E)-11,25-dihydroperoxytirucalla-8,23-dien-3β-ol-7-one] | 5.4 | 3.4 | 15–30% | significant increase | 18.4 | – | – | – | – | –
O=C(Cn1ccnc1[N+](=O)[O-])NCc1ccccc1 [benznidazole, reference compound] | – | – | – | – | – | 3.2 ± 0.5 | 3.6 ± 0.4 | – | – | –
CC(C)=CCC[C@@H](C)[C@@H]1CC[C@]2(C)C3=C(C(=O)C[C@@]12C)[C@@]1(C)CC[C@H](O)C(C)(C)[C@@H]1C[C@H]3O [Compound 8, eupha-8,24-dien-3β,7α-diol-11-one] | 5.8 | 4.9 | 15–30% | significant increase | 28.4 | – | – | – | – | –
C/C(C=O)=C\CC[C@H](C)[C@@H]1CC[C@]2(C)C3=C([C@@H](O)C[C@@]12C)[C@@]1(C)CC[C@H](O)C(C)(C)[C@@H]1CC3=O [Compound 7, Desmondiin H] | 6.4 | 3.7 | – | – | 23.5 | – | – | – | – | –
3β-hydroxy-27-nor-tirucalla-8-en-7,11,25-trione [Compound 12] | 6.6 | – | 15–30% | significant increase | – | – | – | 3.7 | 24.4 | –
CC(=O)CCC[C@H](C)[C@@H]1CC[C@]2(C)C3=C(CC[C@@]12C)[C@@]1(C)CC[C@H](O)C(C)(C)[C@@H]1CC3=O [Compound 3, Desmondiin D] | 7.8 | 4 | – | – | 31 | – | – | – | – | –
C[C@H](C/C=C/C(C)(C)OO)[C@@H]1CC[C@]2(C)C3=C(CC[C@@]12C)[C@@]1(C)CC[C@H](O)C(C)(C)[C@@H]1CC3=O [Compound 1, (23E)-25-hydroperoxyeupha-8,23-diene-3β-ol-7-one] | 8.5 | 4.5 | – | – | 38.1 | – | 2.5 ± 0.3 | – | – | 2.4 ± 0.3
CC(C)C(=O)CC[C@@H](C)[C@@H]1CC[C@]2(C)C3=C(CC[C@@]12C)[C@@]1(C)CC[C@H](O)C(C)(C)[C@@H]1CC3=O [Compound 2, eupha-8-ene-3β-ol-7,24-dione] | 6.3 | 5 | – | significant increase | 31.5 | – | – | – | – | –
